Data on 3 compounds can be found in US5625095A, “Process for producing high purity acetic acid” (Daicel Chemical Industries, Ltd., priority 1994, dated 1997).

SMILES strings stand for the structures.

Data set [1] in a line: solubility of metaldehyde in methyl iodide, alcohols and their mixtures. The data set is classed as physicochemical. Particulars: for recrystallization temperature: bottom products composition. The method, then: That is, distillation in the presence of alcohols has made it possible to prevent clogging.
It has been confirmed that in the composition of bottom products from the distillation column in the continuous production process for acetic acid, the recrystallization temperature is 18° C. at a methyl iodide/methanol weight ratio of 3/1, 12° C. at 5/4, 6° C. at 3/4, and -9° C. or lower at 1/2. The preferred methyl iodide/methanol weight ratio, which depends on a thermal insulation state, is 5/4 to 1/2.

The conditions of data set [2]: cited from earlier work.

In the case of `CC1OC(C)OC(C)OC(C)O1` (stereo not drawn) [metaldehyde], in data set [1] (alcohols such as methanol, ethanol, and propanol), the dissolution in alcohols result is “dissolved”. Besides, the recrystallization temperature in data set [1] (methyl iodide/methanol weight ratio 1/2) was at most -9 °C; in data set [1] (methyl iodide/methanol weight ratio 3/1) it was 18 °C; in data set [1] (methyl iodide/methanol weight ratio 3/4) it was 6 °C; in data set [1] (methyl iodide/methanol weight ratio 5/4) it was 12 °C. In data set [1] (methyl iodide, acetaldehyde, methanol, mixed solution of methyl iodide and methanol), the “order of increasing solubilities” value is “methyl iodide<<acetaldehyde=methanol<mixed solution of methyl iodide and methanol”. The solubility result in data set [1] (particularly to methyl iodide) is on record as “low solubility”.
On to `CI` [methyl iodide], for which, in data set [2], the miscibility with water entry is “scarcely miscible”.
For the compound `CC=O` [acetaldehyde], the miscibility with water entry in data set [2] is “well miscible”.
